Patent US6852687B2, “Method for inhibiting apoptosis” (Sucampo AG, priority 2001, dated 2005)

Assays:
[1] = tested on: Conjunctival epithelial cell line CCL-20.2; experiment: Caspase-3 activity of conjunctival epithelial cells incubated in serum-free medium (Z-DEVD-AFC fluorescence); assay type: cell-based; conditions: for caspase-3 activity compared with the control group: serum-free, 24 hours, n=3
Experimental: (§1) Conjunctival epithelial cell line CCL-20.2 (obtained from American Type Culture Collection) was incubated in serum-containing medium 199 (Gibco) until 60-70% of confluent. The cells were washed with a serum-free medium and were resuspended in serum-free medium 199 containing albumin 1 mg/ml or serum-free medium 199 containing no albumin. The cells were then incubated for 24 hours and collected.
The caspase-3 activities of the collected cells were determined. The cells were lysed in a buffer solution (50 mM HEPES, 1 mM dithiothreitol and 0.1 mM EDTA (pH7.4)) containing 0.1% CHAPS (3-[(3-cholamidopropyl) dimethylammonio]-2-hydroxy-1-propanesulfonic acid) and were centrifuged to collect the supernatant. The caspase activity in the supernatant was determined with 0.1 mM fluorescence substrate (Z-DEVD-AFC) by means of fluorescence intensity measurement(em:505 nm, ex:400 nm) (n=4).
Conjunctival epithelial cell line CCL-20.2 (obtained from American Type Culture Collection) was incubated in serum-containing medium 199 (Gibco) until 70-80% of confluent. The cells were washed with serum-free medium and resuspended in serum-free medium 199 containing albumin 3 mg/ml; albumin 3 mg/ml+EGF10 ng/ml; albumin 3 mg/ml+vitamin A 0.1 μg/ml; or albumin 3 mg/ml+EGF10 ng/ml+vitamin A 0.1 μg/ml. […]
The caspase-3 activities of the collected cells were measured. […] The caspase activity in the supernatant was determined with 0.1 mM fluorescence substrate (Z-DEVD-AFC) by means of fluorescence intensity measurement(em:505 nm, ex:400 nm) (n=3). […]
The caspase-3 activities of the collected cells were measured. […] The caspase activity in the supernatant was determined with 0.1 mM fluorescence substrate (Z-DEVD-AFC) by means of fluorescence intensity measurement (em:505 nm, ex:400 nm) (n=3). […]
The caspase-3 activities of the collected cells were measured. […] The caspase activity in the supernatant was determined with 0.1 mM fluorescence substrate (Z-DEVD-AFC) by means of fluorescence intensity measurement (em: 505 nm, ex: 400 nm) (n=3).

[2] = tested on: Conjunctival epithelial cell line CCL-20.2; experiment: DNA fragmentation (Cell Death Detection ELISAPLUS); assay type: cell-based; conditions: Example 1; albumin 1 mg/ml in serum-free medium 199, 24 hours, n=4; measured at 405 nm; control without albumin 0.111 ± 0.018
Experimental: as §1
DNA fragmentation was determined with the Cell Death Detection ELISAPLUS (Roche Diagnostics Corporation, Basel, Switzerland). 2×10^4 cells were lysed with 0.1 ml of buffering solution and centrifuged to collect the supernatant. The obtained supernatant as well as positive and background controls, each in the amount of 20 μl, was respectively added to a plate coated with streptavidin. After adding an immunologic reagent (incubation buffer: antihistone-biotin: anti-DNA-POD=18:1:1) 80 μl to each plate, it was coated with a film and shaken at 300 rpm for 2 hours at room temperature. Then the plate was washed with incubation buffer 250-300 μl for 3 times. After adding substrate (ABTS) solution 100 μl to the plate, it was shaken at 250 rpm for 10-20 minutes at room temperature. The measurement was 405 nm (reference wavelength 492 nm)(n=4).

## albumin
[1]; Example 1, albumin 1 mg/ml in serum-free medium 199, 24 hours, n=4, control without albumin 0.744 ± 0.246
  Caspase-3 activity mean ± S.E.: 0.510 ± 0.191 n mol/hr/mg protein
[1]; Example 2, FIG. 1, albumin 3 mg/ml, EGF 10 ng/ml, vitamin A 0.1 μg/ml
  caspase-3 activity compared with the control group: significantly lower
[1]; Example 3, FIG. 2, albumin 1 mg/ml, TGFα 10 ng/ml, TGFβ 10 ng/ml
  caspase-3 activity compared with the control group: significantly lower
[2]
  DNA fragmentation mean ± S.E.: 0.096 ± 0.047
